Experimental data as given in ChEMBL document CHEMBL1201862, “PubChem BioAssay data set” (2004).
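Grown in 96-well plates, cells were treated for 48 hours with each compound at five concentrations. Insufficient inhibition: endpoint recorded as highest concentration tested. GI50 is the concentration that inhibits growth by half.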 Activity calls are given as the source filed them. No stated cut-off is given here; in the data, active = GI50 up to about 1.1 µM and inactive = higher.

Columns and labels:
Experiment in all cases: NCI anticancer screen, dose series, 48 h
786-0 = system: 786-0
DU-145 = system: DU-145
EKVX = system: EKVX
HCT-15 = system: HCT-15
HT-29 = system: HT-29
K562 = system: K562
MCF7 = system: MCF7
MDA-MB-231 = system: MDA-MB-231
NCI-H226 = system: NCI-H226
NCI-H522 = system: NCI-H522
OVCAR-3 = system: OVCAR-3
OVCAR-4 = system: OVCAR-4
OVCAR-5 = system: OVCAR-5
RPMI-8226 = system: RPMI-8226
SF-268 = system: SF-268
SK-MEL-28 = system: SK-MEL-28
SK-OV-3 = system: SK-OV-3
SW-620 = system: SW-620
UACC-62 = system: UACC-62

SMILES	GI50 (786-0)	GI50 (DU-145)	GI50 (EKVX)	GI50 (HCT-15) [µM]	GI50 (HT-29)	GI50 (K562)	GI50 (MCF7)	GI50 (MDA-MB-231)	GI50 (NCI-H226)	GI50 (NCI-H522)	GI50 (OVCAR-3)	GI50 (OVCAR-4)	GI50 (OVCAR-5)	GI50 (RPMI-8226)	GI50 (SF-268)	GI50 (SK-MEL-28)	GI50 (SK-OV-3)	GI50 (SW-620)	GI50 (UACC-62)
Clc1ccc2oc(CCC3CCCCC3)nc2c1	28.2 µM (inactive)	34.3 µM (inactive)	26.7 µM (inactive)	24.7	23.5 µM (inactive)	38.2 µM (inactive)	26.1 µM (inactive)	28.3 µM (inactive)	19.2 µM (inactive)	21.9 µM (inactive)	15.6 µM (inactive)	27.4 µM (inactive)	33.3 µM (inactive)	37.3 µM (inactive)	64.7 µM (inactive)	33.3 µM (inactive)	26.1 µM (inactive)	31.8 µM (inactive)	60.4 µM (inactive)
COc1ccc2c(c1OC)C(=O)N1C2=Cc2c(cc3c(c2OC)OCO3)CC1N(C)C (stereo unspecified)	> 100 µM (inactive)	43.8 µM (inactive)	65.8 µM (inactive)	36.5	–	30.3 µM (inactive)	58.7 µM (inactive)	81.1 µM (inactive)	40.4 µM (inactive)	28.9 µM (inactive)	40.6 µM (inactive)	30.1 µM (inactive)	> 100 µM (inactive)	22.8 µM (inactive)	63.5 µM (inactive)	46.1 µM (inactive)	87.7 µM (inactive)	62.1 µM (inactive)	27.5 µM (inactive)
CCc1nc(N)nc(N)c1-c1ccc(Cl)c([N+]#N)c1	48.2 µM (inactive)	80.2 µM (inactive)	> 100 µM (inactive)	28.8	33.3 µM (inactive)	6.32 µM (inactive)	> 100 µM (inactive)	> 100 µM (inactive)	> 100 µM (inactive)	38.7 µM (inactive)	44.5 µM (inactive)	> 100 µM (inactive)	> 100 µM (inactive)	0.564 µM (active)	> 100 µM (inactive)	> 100 µM (inactive)	> 100 µM (inactive)	36.5 µM (inactive)	41 µM (inactive)
CSc1ccc2c(cc1=O)[C@@H](NC(C)=O)CCc1cc(O)c(O)c(O)c1-2	13.8 µM (inactive)	> 100 µM (inactive)	31.9 µM (inactive)	17.5	9.82 µM (inactive)	–	4.81 µM (inactive)	23.9 µM (inactive)	15.4 µM (inactive)	16.2 µM (inactive)	18.6 µM (inactive)	17.6 µM (inactive)	17.1 µM (inactive)	12.9 µM (inactive)	16.3 µM (inactive)	> 100 µM (inactive)	> 100 µM (inactive)	28.1 µM (inactive)	36.1 µM (inactive)
O=c1cnn(C/C=C/CO)c(=O)[nH]1	–	> 100 µM (inactive)	> 100 µM (inactive)	> 100	–	> 100 µM (inactive)	> 100 µM (inactive)	> 100 µM (inactive)	> 100 µM (inactive)	> 100 µM (inactive)	> 100 µM (inactive)	–	> 100 µM (inactive)	> 100 µM (inactive)	> 100 µM (inactive)	> 100 µM (inactive)	–	> 100 µM (inactive)	–
CC(NC(=O)C(NC(=O)C(NC(=O)C(F)(F)F)C(C)C)C(C)C)C(=O)Oc1c(Cl)c(Cl)c(Cl)c(Cl)c1Cl (stereo unspecified)	–	> 100 µM (inactive)	> 100 µM (inactive)	> 100	> 100 µM (inactive)	> 100 µM (inactive)	> 100 µM (inactive)	> 100 µM (inactive)	94.6 µM (inactive)	85.5 µM (inactive)	92.5 µM (inactive)	> 100 µM (inactive)	> 100 µM (inactive)	> 100 µM (inactive)	> 100 µM (inactive)	> 100 µM (inactive)	> 100 µM (inactive)	> 100 µM (inactive)	> 100 µM (inactive)
O=c1[nH]cnc2c1sc1nc3ccccc3n12	67.5 µM (inactive)	> 100 µM (inactive)	> 100 µM (inactive)	80.9	> 100 µM (inactive)	–	76.4 µM (inactive)	> 100 µM (inactive)	> 100 µM (inactive)	> 100 µM (inactive)	> 100 µM (inactive)	> 100 µM (inactive)	> 100 µM (inactive)	> 100 µM (inactive)	> 100 µM (inactive)	> 100 µM (inactive)	58.1 µM (inactive)	> 100 µM (inactive)	30.5 µM (inactive)
CC(=O)O[C@H]1CC[C@@]2(C)C(=CC[C@@H]3[C@@H]2CC[C@]2(C)Nc4c(cnn4S(C)(=O)=O)C[C@@H]32)C1	–	49.5 µM (inactive)	–	43.6	21.9 µM (inactive)	19.1 µM (inactive)	28.9 µM (inactive)	> 100 µM (inactive)	35.2 µM (inactive)	41.1 µM (inactive)	48 µM (inactive)	–	38.2 µM (inactive)	32.3 µM (inactive)	–	> 100 µM (inactive)	> 100 µM (inactive)	–	47.3 µM (inactive)
Cc1cc(NS(=O)(=O)c2ccc(/N=[N+](\[O-])c3ccc(S(=O)(=O)Nc4cc(C)on4)cc3)cc2)no1	> 100 µM (inactive)	> 100 µM (inactive)	> 100 µM (inactive)	> 100	> 100 µM (inactive)	> 100 µM (inactive)	> 100 µM (inactive)	> 100 µM (inactive)	> 100 µM (inactive)	> 100 µM (inactive)	> 100 µM (inactive)	> 100 µM (inactive)	> 100 µM (inactive)	> 100 µM (inactive)	> 100 µM (inactive)	–	> 100 µM (inactive)	–	> 100 µM (inactive)
N#CC(C#N)=C1/C(=C/C=C/C=C/C=C/c2ccc(N3CCCCC3)s2)S(=O)(=O)c2ccccc21	93.1 µM (inactive)	55 µM (inactive)	> 100 µM (inactive)	> 100	> 100 µM (inactive)	> 100 µM (inactive)	> 100 µM (inactive)	> 100 µM (inactive)	> 100 µM (inactive)	22.1 µM (inactive)	> 100 µM (inactive)	> 100 µM (inactive)	> 100 µM (inactive)	36.4 µM (inactive)	–	> 100 µM (inactive)	> 100 µM (inactive)	> 100 µM (inactive)	> 100 µM (inactive)
CC[C@@]1(O)C(=O)OCc2c1cc1n(c2=O)Cc2c-1nc1ccccc1c2/C=N\NC(=O)C(N)Cc1c[nH]c2ccccc12 (stereo partly specified)	0.108 µM (active)	0.164 µM (active)	5.78 µM (inactive)	–	3.74 µM (inactive)	0.239 µM (active)	0.0668 µM (active)	33 µM (inactive)	1.11 µM (active)	0.643 µM (active)	5.14 µM (inactive)	3.08 µM (inactive)	13.1 µM (inactive)	0.78 µM (active)	0.0354 µM (active)	1.26 µM (inactive)	0.49 µM (active)	0.61 µM (active)	0.0528 µM (active)
C[C@@H]1Nc2cc(NC(=O)OCCF)nc(N)c2N=C1c1ccccc1	< 0.0001 µM (active)	< 0.0001 µM (active)	< 0.0001 µM (active)	< 0.0001	< 0.0001 µM (active)	< 0.0001 µM (active)	0.0208 µM (active)	< 0.0001 µM (active)	42.2 µM (inactive)	< 0.0001 µM (active)	< 0.0001 µM (active)	–	< 0.0001 µM (active)	< 0.0001 µM (active)	< 0.0001 µM (active)	88.7 µM (inactive)	–	< 0.0001 µM (active)	34.8 µM (inactive)
CC1=[N+]([O-])C(C)(C)N(N=O)C1(C)C	> 10 µM (inactive)	> 10 µM (inactive)	> 10 µM (inactive)	> 10	> 10 µM (inactive)	> 10 µM (inactive)	> 10 µM (inactive)	> 10 µM (inactive)	> 10 µM (inactive)	> 10 µM (inactive)	> 10 µM (inactive)	> 10 µM (inactive)	> 10 µM (inactive)	> 10 µM (inactive)	> 10 µM (inactive)	–	–	> 10 µM (inactive)	–
Cc1n[nH]c(=O)n1-c1cccnc1	> 100 µM (inactive)	> 100 µM (inactive)	> 100 µM (inactive)	> 100	> 100 µM (inactive)	> 100 µM (inactive)	> 100 µM (inactive)	> 100 µM (inactive)	> 100 µM (inactive)	> 100 µM (inactive)	> 100 µM (inactive)	> 100 µM (inactive)	> 100 µM (inactive)	> 100 µM (inactive)	> 100 µM (inactive)	> 100 µM (inactive)	–	> 100 µM (inactive)	–
COC(=O)C1c2c(c3ccccc3n2C(=O)OC)CCN2CCC1C(S(=O)(=O)c1ccccc1)C2=O (stereo unspecified)	> 100 µM (inactive)	> 100 µM (inactive)	> 100 µM (inactive)	> 100	> 100 µM (inactive)	> 100 µM (inactive)	> 100 µM (inactive)	> 100 µM (inactive)	24 µM (inactive)	89.3 µM (inactive)	> 100 µM (inactive)	–	> 100 µM (inactive)	30.6 µM (inactive)	> 100 µM (inactive)	> 100 µM (inactive)	> 100 µM (inactive)	> 100 µM (inactive)	> 100 µM (inactive)
COC(=O)/C=C1\SC2(O\C1=N/c1ccccc1)C1CC3CC(C1)CC2C3 (stereo unspecified)	–	> 10 µM (inactive)	> 100 µM (inactive)	> 100	> 100 µM (inactive)	> 100 µM (inactive)	> 100 µM (inactive)	> 100 µM (inactive)	> 100 µM (inactive)	> 100 µM (inactive)	> 100 µM (inactive)	36.1 µM (inactive)	> 100 µM (inactive)	> 100 µM (inactive)	–	> 100 µM (inactive)	> 100 µM (inactive)	> 100 µM (inactive)	> 100 µM (inactive)
